Experimental data reported in ChEMBL document CHEMBL1201862, “PubChem BioAssay data set” (2004).
The source made the active and inactive calls.

Experiments:
[1] = molecular target: T1, Dual specificity protein phosphatase 3 (Homo sapiens, UniProt P51452); experiment: VHR1 phosphatase inhibitors, primary screen, biochemical, absorbance, uHTS (AID 1654)
[2] = molecular target: T1, Dual specificity protein phosphatase 3; experiment: VHR phosphatase inhibition, dose response, selectivity assay for STEP inhibitor project, biochemical (AID 602374); type: functional; settings: read-out: IC50_Mean
[3] = molecular target: T2, Tyrosine-protein phosphatase non-receptor type 11 (Homo sapiens, UniProt Q06124); experiment: SHP2 phosphatase inhibition, dose response, selectivity assay for STEP inhibitor project, biochemical (AID 602367); type: functional; settings: read-out: IC50_Mean
T2 sequence (Q06124 whole entry): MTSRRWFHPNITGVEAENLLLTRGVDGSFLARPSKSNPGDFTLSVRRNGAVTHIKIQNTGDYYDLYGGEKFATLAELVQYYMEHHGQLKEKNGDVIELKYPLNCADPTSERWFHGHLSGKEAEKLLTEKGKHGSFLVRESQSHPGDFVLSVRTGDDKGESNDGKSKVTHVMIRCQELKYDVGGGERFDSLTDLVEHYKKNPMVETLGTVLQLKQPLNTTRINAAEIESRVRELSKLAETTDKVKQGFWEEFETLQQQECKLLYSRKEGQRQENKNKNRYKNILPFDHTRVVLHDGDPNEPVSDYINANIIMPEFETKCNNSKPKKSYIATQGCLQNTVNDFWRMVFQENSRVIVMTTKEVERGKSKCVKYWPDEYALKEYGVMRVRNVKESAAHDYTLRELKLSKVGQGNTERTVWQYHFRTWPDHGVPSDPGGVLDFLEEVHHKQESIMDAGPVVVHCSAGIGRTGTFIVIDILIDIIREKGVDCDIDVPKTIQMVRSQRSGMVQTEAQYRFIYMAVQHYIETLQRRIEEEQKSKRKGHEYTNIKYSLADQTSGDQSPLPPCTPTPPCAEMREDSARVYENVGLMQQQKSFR

[4] = molecular target: T1, Dual specificity protein phosphatase 3; experiment: VHR1 phosphatase inhibitors, biochemical (AID 1878)
[5] = molecular target: DNA dC->dU-editing enzyme APOBEC-3A (Homo sapiens, UniProt P31941); experiment: APOBEC3A DNA deaminase inhibitors, dose response, biochemical (AID 504722); type: functional
[6] = molecular target: Glucose-6-phosphate 1-dehydrogenase (Homo sapiens, UniProt P11413); experiment: human G6PD enzyme inhibitors, dose response, selectivity assay for P. falciparum G6PD inhibitor project, biochemical, fluorescence (AID 504792); type: functional
[7] = molecular target: T3, Tyrosine-protein phosphatase non-receptor type 5 (Homo sapiens, UniProt P54829); experiment: STEP phosphatase inhibitors, confirmation, biochemical, fluorescence intensity, uHTS hits (AID 602372); type: functional; settings: read-out: IC50_Mean
T3 sequence (P54829 whole entry): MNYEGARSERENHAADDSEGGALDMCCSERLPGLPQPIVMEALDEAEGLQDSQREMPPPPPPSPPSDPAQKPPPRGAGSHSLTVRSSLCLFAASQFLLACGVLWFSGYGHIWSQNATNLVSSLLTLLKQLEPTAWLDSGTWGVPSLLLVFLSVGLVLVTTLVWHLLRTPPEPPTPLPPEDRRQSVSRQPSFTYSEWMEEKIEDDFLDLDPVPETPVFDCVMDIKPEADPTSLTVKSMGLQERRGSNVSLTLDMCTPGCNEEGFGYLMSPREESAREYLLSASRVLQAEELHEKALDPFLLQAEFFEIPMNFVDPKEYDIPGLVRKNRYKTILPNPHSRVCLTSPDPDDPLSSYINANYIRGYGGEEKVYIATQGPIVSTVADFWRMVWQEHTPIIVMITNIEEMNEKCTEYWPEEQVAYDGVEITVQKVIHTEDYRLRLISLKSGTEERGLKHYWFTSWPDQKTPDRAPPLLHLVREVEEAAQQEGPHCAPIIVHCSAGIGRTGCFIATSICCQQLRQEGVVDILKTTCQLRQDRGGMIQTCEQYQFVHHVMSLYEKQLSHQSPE

[8] = molecular target: DNA dC->dU-editing enzyme APOBEC-3G (Homo sapiens, UniProt Q9HC16); experiment: Dose Response confirmation of small molecule APOBEC3G DNA Deaminase Inhibitors via a fluorescence-based single-stranded DNA deaminase assay. [Related pubchem assays (depositor defined):AID493012, AID493028]; type: functional
[9] = molecular target: T4, Dual specificity protein phosphatase 6 (Rattus norvegicus, UniProt Q64346); experiment: MKP-3 phosphatase inhibitors, primary screen, biochemical, rat enzyme, in vitro (AID 425)
T4 sequence (Q64346 whole entry): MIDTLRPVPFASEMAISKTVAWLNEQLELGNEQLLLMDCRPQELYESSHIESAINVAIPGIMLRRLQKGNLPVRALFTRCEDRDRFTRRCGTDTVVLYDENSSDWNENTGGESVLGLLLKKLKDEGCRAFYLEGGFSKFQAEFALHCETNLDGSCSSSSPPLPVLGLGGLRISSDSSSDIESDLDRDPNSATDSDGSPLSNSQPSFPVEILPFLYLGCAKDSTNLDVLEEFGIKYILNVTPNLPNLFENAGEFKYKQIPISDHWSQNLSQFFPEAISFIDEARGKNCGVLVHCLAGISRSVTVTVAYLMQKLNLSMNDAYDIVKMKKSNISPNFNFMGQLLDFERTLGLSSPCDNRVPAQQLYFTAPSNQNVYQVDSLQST

[10] = molecular target: T5, Tyrosine-protein phosphatase non-receptor type 22 (Homo sapiens, UniProt Q9Y2R2); experiment: PTPN22 phosphatase inhibition, dose response, selectivity assay for STEP inhibitor project, biochemical (AID 624241); type: functional
T5 sequence (Q9Y2R2 whole entry): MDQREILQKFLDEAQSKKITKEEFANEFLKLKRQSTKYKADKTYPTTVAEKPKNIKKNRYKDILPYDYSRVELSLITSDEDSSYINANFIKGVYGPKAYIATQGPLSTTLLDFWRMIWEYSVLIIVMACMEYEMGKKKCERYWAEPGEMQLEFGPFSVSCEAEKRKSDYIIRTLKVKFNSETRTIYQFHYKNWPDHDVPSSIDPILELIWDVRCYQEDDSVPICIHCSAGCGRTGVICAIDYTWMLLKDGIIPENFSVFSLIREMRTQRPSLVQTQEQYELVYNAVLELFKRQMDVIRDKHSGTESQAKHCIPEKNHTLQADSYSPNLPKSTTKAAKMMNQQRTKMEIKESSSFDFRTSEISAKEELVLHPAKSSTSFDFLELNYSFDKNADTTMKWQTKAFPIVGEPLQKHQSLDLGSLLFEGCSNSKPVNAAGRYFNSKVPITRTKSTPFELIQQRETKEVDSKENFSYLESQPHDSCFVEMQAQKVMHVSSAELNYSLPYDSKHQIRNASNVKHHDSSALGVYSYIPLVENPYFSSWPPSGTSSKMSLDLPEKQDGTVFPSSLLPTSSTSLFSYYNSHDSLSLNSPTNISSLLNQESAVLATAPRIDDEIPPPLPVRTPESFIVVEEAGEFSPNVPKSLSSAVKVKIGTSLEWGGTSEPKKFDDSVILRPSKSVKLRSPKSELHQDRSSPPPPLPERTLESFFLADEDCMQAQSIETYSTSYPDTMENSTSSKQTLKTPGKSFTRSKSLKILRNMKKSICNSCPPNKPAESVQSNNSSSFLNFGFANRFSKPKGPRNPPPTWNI

[11] = molecular target: T1, Dual specificity protein phosphatase 3; experiment: SAR VHR1 Fluorescent Assay for In Vitro dose response studies. [Related pubchem assays (depositor defined):AID1654, AID1661, AID1878, AID1992, AID2004, AID2070, AID2085]; type: functional
[12] = molecular target: T6, Tyrosine-protein phosphatase non-receptor type 7 (Homo sapiens, UniProt P35236); experiment: redox-dependent HePTP inhibition, mechanism study, biochemical, fluorescence (AID 2068); type: functional
T6 sequence (P35236 whole entry): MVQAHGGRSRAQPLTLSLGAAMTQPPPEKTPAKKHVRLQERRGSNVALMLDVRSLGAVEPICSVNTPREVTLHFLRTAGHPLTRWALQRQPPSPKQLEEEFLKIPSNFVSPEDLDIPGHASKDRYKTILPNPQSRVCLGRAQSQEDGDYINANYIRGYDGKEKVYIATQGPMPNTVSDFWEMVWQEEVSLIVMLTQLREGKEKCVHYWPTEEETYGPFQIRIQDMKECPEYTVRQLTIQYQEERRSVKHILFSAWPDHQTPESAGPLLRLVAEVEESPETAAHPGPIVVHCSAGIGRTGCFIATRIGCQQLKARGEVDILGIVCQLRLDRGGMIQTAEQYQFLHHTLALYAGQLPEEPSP

[13] = molecular target: T7, Serine/threonine-protein phosphatase (Candida dubliniensis (strain CD36 / CBS 7987 / NCPF 3949 / NRRLY-17841) (Yeast), UniProt B9W6M3); experiment: calcineurin pathway inhibitors in yeast reporter, dose response, S. cerevisiae, CDRE-lacZ, luminescence, secondary (AID 2388); type: functional, cell-based;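 also: yeast reporter cells carrying a calcineurin-responsive lacZ construct stimulated with calcium chloride; luminescent beta-galactosidase reporter signal in whole cells rather than isolated phosphatase activity; potency for inhibition where a drop in reporter signal means calcineurin blockade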
T7 sequence (B9W6M3 whole entry): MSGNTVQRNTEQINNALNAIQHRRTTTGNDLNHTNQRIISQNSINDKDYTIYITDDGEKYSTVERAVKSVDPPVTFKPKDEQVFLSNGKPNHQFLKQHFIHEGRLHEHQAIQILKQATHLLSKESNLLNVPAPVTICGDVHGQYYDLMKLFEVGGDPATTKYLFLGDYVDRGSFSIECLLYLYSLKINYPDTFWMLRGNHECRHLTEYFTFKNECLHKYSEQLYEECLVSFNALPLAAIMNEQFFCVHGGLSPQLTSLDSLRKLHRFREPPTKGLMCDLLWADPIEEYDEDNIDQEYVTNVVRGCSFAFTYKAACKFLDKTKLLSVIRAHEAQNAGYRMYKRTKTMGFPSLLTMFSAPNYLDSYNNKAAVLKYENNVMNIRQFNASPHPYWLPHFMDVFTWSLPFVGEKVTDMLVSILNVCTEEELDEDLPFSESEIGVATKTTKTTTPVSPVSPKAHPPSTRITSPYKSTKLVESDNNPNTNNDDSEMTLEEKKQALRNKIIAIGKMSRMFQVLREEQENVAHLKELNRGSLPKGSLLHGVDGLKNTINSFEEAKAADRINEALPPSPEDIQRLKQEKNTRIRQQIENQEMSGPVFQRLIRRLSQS

cells [14] = type: functional, cell-based
[15] = cytotoxicity toward NIH3T3 fibroblasts, dose response, counter-screen, cell-based, ATP luminescence, mouse fibroblasts (AID 2010); type: functional;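 also: cells exposed to compound for about 90 hours before reading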
cells [16] = type: functional, cell-based; remark: listed apart in the source
[17] = molecular target: G-protein coupled receptor 55 (Homo sapiens, UniProt Q9Y2T6); experiment: GPR55 agonists via beta-arrestin recruitment, primary screen, imaging, U2OS cells, beta-arrestin-GFP redistribution (AID 1961); type: functional
INS1 = experiment: beta cell apoptosis inhibitors, cytokine rescue, dose response, luminescence, retest (AID 449756); type: functional, cell-based; settings: Rattus norvegicus;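 also: cell death triggered by IL-1 beta plus TNF-alpha plus IFN-gamma mixture; protective hits raise ATP signal compared with cytokine alone wells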
Streptokinase A = molecular target: T8, Streptokinase A (Streptococcus pyogenes serotype M1, UniProt P10520); experiment: S. pyogenes streptokinase expression inhibitors, potency, dose response, plasminogen activation absorbance, OD405 (AID 1914); type: functional, Streptococcus pyogenes M1 GAS;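 also: secreted streptokinase activity via plasminogen activation per viability signal from cell pellet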
T8 sequence (P10520 whole entry): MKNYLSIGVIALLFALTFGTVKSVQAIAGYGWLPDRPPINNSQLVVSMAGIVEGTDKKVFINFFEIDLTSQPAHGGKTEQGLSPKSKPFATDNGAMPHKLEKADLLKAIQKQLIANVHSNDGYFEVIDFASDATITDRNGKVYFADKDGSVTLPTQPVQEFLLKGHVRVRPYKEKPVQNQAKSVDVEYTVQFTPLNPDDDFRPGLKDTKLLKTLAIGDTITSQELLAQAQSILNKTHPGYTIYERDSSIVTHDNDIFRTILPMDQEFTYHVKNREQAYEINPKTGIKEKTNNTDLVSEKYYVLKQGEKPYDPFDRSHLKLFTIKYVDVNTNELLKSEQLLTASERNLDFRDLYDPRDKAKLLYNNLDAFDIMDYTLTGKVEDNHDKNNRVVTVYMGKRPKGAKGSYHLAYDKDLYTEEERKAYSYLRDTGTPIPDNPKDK

[18] = C. albicans growth with fluconazole, confirmation, fluorescence, retest (AID 2467); type: functional, cell-based
[19] = NIH-3T3 fibroblast cytotoxicity, dose response, cytotoxicity control, cell-based, fluorescence, Alamar Blue, secondary assay (AID 2327); type: functional;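 also: NIH-3T3 mouse fibroblasts cultured with fluconazole at 8 µg/mL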
[20] = test system: Streptococcus sp. 'group A'; experiment: growth inhibition of control SK(-) GAS strain, dose response, counter-screen for streptokinase expression inhibitor project, luminescence, kanamycin, BacTiterGlo, confirmation (AID 1900); type: functional, organism-based
[21] = molecular target: ATP-dependent molecular chaperone HSP82 (Candida albicans (strain WO-1) (Yeast), UniProt C4YTQ8); experiment: loss of DOC-induced GRE-beta-galactosidase reporter signal, dose response, Hsp90 inhibitor project, S. cerevisiae, luminescence (AID 2400); type: functional, cell-based;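 also: beta-galactosidase luminescence from glucocorticoid response element reporter as proxy for Hsp90 function; inhibitor potency where signal loss means Hsp90 inhibition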
Streptococcus = experiment: Group A Streptococcus viability loss, dose response, counter-screen for streptokinase expression inhibitor project, luminescence, BacTiterGlo (AID 1915); type: functional, organism-based;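 also: potency for reduction of bacterial viability or growth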
[22] = inhibitors of intracellular T. cruzi replication, confirmation, NIH3T3 host cells, beta-gal luminescence (AID 2044); type: functional, cell-based;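 also: intracellular parasites grown in NIH/3T3 mouse fibroblasts as host cells; luminescent beta-galactosidase reporter signal from transgenic T. cruzi replicating inside host cells; inhibitors lower the luminescence signal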
CAAX prenyl protease 2 = CAAX prenyl protease 2 (Saccharomyces cerevisiae S288c, UniProt Q03530); type: biochemical
Trypsin = Trypsin (Sus scrofa, UniProt P00761); experiment: porcine trypsin inhibitors, dose response, selectivity assay for Rce1 protease inhibitor project, biochemical, quenched peptide fluorescence, cherry-pick (AID 488789)
Sequence of Trypsin (P00761 whole entry): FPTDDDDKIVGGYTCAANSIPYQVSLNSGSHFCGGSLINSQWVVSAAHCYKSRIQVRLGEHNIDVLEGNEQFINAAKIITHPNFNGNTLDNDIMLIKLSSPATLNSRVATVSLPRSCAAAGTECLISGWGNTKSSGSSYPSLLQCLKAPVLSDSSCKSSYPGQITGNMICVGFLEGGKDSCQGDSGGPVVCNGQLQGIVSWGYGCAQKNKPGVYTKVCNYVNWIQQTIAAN

T1 sequence (P51452 whole entry): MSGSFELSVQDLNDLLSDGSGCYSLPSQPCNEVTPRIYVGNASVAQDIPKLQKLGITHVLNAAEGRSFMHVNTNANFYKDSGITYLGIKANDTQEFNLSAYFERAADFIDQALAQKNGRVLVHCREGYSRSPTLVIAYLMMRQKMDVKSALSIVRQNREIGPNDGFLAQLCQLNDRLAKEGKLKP
Sequence of G-protein coupled receptor 55 (Q9Y2T6 whole entry): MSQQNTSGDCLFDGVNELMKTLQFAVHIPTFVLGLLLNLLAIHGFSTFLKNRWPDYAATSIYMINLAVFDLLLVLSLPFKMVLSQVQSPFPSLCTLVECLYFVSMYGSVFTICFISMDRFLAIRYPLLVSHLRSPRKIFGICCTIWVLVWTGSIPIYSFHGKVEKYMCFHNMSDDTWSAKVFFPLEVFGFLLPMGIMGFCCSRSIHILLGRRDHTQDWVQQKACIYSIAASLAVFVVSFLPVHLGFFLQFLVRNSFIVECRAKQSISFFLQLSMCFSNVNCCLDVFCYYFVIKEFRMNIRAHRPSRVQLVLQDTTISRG
Sequence of DNA dC->dU-editing enzyme APOBEC-3A (P31941 whole entry): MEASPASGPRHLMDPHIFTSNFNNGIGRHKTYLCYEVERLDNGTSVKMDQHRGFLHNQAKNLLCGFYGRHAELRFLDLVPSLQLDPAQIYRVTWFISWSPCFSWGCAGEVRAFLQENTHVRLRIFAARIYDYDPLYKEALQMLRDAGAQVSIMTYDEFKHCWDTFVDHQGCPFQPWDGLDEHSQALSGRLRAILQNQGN
Sequence of Glucose-6-phosphate 1-dehydrogenase (P11413 whole entry): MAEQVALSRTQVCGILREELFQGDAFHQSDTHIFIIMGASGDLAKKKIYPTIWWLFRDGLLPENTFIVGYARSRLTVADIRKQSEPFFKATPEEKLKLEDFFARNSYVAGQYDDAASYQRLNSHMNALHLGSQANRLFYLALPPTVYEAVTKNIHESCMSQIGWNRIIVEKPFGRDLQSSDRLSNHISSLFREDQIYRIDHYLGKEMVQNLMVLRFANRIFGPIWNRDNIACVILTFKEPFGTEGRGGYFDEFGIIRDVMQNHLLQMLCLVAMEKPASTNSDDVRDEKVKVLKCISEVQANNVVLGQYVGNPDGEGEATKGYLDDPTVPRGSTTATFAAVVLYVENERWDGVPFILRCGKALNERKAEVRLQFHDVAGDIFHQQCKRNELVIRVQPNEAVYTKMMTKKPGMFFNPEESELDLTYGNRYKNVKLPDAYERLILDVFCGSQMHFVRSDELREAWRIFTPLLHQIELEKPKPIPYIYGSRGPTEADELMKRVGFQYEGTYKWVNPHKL
Sequence of ATP-dependent molecular chaperone HSP82 (C4YTQ8 whole entry): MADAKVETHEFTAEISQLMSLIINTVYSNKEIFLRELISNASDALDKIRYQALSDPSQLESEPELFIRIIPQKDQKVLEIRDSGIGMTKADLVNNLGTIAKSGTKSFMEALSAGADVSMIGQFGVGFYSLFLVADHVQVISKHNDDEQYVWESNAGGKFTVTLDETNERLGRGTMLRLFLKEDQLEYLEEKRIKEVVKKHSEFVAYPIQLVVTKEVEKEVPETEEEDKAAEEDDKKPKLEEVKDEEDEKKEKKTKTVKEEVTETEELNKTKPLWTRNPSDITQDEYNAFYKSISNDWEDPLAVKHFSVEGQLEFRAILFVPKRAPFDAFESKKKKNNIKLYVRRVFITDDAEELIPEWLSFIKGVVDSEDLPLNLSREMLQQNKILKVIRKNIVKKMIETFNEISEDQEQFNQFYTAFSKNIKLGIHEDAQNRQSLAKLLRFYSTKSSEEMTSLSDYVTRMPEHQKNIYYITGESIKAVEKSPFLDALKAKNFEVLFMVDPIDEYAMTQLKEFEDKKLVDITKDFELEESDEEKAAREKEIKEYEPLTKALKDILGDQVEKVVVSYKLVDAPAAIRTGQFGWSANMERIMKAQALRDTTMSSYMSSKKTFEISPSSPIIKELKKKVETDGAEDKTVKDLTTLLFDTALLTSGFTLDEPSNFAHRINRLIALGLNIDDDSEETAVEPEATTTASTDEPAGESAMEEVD
Sequence of DNA dC->dU-editing enzyme APOBEC-3G (Q9HC16 whole entry): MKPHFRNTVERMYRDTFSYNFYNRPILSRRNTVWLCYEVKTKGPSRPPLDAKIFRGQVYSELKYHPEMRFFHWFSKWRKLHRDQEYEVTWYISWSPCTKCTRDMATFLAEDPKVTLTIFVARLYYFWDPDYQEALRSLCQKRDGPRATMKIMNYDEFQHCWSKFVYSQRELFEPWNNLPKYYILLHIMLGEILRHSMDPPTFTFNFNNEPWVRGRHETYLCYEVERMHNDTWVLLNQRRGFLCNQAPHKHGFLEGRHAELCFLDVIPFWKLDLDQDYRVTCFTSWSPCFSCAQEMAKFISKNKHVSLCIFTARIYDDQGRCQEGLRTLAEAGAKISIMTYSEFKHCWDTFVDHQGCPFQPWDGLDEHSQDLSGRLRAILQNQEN
Sequence of CAAX prenyl protease 2 (Q03530 whole entry): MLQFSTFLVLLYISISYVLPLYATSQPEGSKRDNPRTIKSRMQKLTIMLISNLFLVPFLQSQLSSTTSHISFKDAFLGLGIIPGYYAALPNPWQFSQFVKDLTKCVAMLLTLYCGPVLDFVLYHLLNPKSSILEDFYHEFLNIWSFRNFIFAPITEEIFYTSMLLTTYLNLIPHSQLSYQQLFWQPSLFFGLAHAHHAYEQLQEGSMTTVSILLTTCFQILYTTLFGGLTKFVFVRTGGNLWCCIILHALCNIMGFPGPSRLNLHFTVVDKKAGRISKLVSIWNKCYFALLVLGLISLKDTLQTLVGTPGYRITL

CN1CCN(C(=S)C(=O)Nc2ccc(Br)cc2)CC1
IC50 [1]: 4 µM (active)
IC50 [2]: 0.386 µM (active)
IC50 [3]: 0.431 µM (active)
IC50 [4]: 8.52 µM (active)
IC50 [5]: > 100 µM (inactive)
IC50 [6]: > 80 µM (inactive)
IC50 [7]: 6.57 µM (active)
IC50 [8]: 5.11 µM (active)
IC50 [9]: > 158 µM (not active)
IC50 [10]: 9.73 µM (active)

O=C(Nc1ccc2nc(-c3ccco3)c(-c3ccco3)nc2c1)N1CCC(c2ccccc2)C1 (stereo not drawn)
IC50 [11]: 14.7 µM (active)
IC50 [12]: 0.55 µM (active)

CC1CCN(Cc2c(C(=O)N/N=C/c3cc(Cl)ccc3O)nnn2-c2nonc2N)CC1
EC50 [13]: > 180 µM (inactive)
EC50 (cells [14]): 10.7 µM (active)
EC50 [15]: 5.57 µM (active)
EC50 (cells [16]): > 350 µM (not active)
EC50 [17]: 4.16 µM (active)
AC50 (INS1): 0.457 µM (active)
EC50 (Streptokinase A): 31 µM (active)
EC50 [18]: 0.508 µM (active)
EC50 [19]: > 150 µM (inconclusive)
EC50 [20]: 27.3 µM (active)
EC50 [21]: > 150 µM (inactive)
EC50 (Streptococcus): > 150 µM (not active)
EC50 [22]: 0.541 µM (active)

C=CCOc1ccc(-c2nnc(S)o2)cc1
AC50 (CAAX prenyl protease 2): 22.6 µM (active)
AC50 (Trypsin): 3.91 µM (active)

Cc1cc2ncn(-c3nnnn3-c3ccccc3)c2cc1C
EC50 [17]: 20 µM (inactive)
